This passage reports IC50 results from patent US11440913B2, “Aminoimidazopyridazines as kinase inhibitors” (BRISTOL-MYERS SQUIBB COMPANY, priority 2017, dated 2022).

The target in assay [1] is His-GST-TVMV-hRIPK1(1-324) (Homo sapiens (Human), UniProt Q13546). Description: RIPK1 HTRF Binding Assay. As to conditions: HTRF binding, 1 h at rt; read-out: RIPK1 (IC50). Put shortly:
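HTRF probe-displacement binding: 1 nM His-GST-TVMV-hRIPK1(1-324) (baculovirus construct), 90.6 nM probe, 0.2 nM anti-GST-Tb in 20 mM HEPES, 10 mM MgCl2, 0.015% Brij-35, 4 mM DTT, 0.05 mg/mL BSA. Incubated 1 h at rt; FRET 520/495 nm ratio, inhibition relative to DMSO-only wells.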
A general note: TR-FRET usually uses a lanthanide donor and a delayed reading to cut background.

Assay [2] has as its system MLKL phosphorylation in HT29-L23 human colorectal adenocarcinoma cells. Description: MLKL Phosphorylation High-Content Assay. The format is cell-based. As to conditions: 6 h, necroptosis induced with TNFα, SMAC mimetic and Z-VAD, read-out: pMLKL (IC50). A digest of the protocol: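 HT29-L23 cells pretreated 30 min at 37 °C with compound (6.25 to 0.106 μM final), then necroptosis induced with TNFα 35 ng/mL, SMAC mimetic 700 nM and Z-VAD 140 nM for 6 h. Fixed cells immunostained for MLKL pS358 and imaged; IC50 and Ymax from 4-parameter logistic fit.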

Counter-ions that a name gives are not always drawn. Like-named read-outs stand apart in the source and are kept apart here.

Sequence of His-GST-TVMV-hRIPK1(1-324) (Q13546 1-324): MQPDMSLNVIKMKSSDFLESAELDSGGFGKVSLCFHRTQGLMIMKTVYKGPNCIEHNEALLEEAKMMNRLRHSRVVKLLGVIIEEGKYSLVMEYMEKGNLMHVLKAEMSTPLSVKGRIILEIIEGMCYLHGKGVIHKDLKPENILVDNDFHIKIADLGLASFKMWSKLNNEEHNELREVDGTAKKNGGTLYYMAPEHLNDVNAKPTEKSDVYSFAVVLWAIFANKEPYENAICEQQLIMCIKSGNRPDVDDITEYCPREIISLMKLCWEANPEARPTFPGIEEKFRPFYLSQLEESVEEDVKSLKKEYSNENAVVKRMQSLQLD

In general, IC50 refers to the concentration at which inhibition is half-maximal. For `CC(=O)Nc1cn2nc(-c3cnc(C)c(C(=O)NCc4c(F)cccc4OC4CCCC4)c3)ccc2n1` [Example 223, N-{[2-(cyclopentyloxy)-6-fluorophenyl]methyl}-5-{2-acetamidoimidazo[1,2-b]pyridazin-6-yl}-2-methylpyridine-3-carboxamide], the IC50 was determined as 4 nM in assay [1] and 3 nM in assay [2] (Homo sapiens).

For `[2H]C([2H])(NC(=O)c1cc(-c2ccc3nc(NC(C)=O)cn3n2)c(C)nc1C)c1cccc(C(F)(F)F)c1` [Example 74, 5-{2-acetamidoimidazo[1,2-b]pyridazin-6-yl}-2,6-dimethyl-N-{[3-(trifluoro-methyl)phenyl](deutero)methyl}pyridine-3-carboxamide, TFA], the IC50 was 63 nM in assay [1] and 353 nM in assay [2] (Homo sapiens).

As to `CC(=O)Nc1cn2nc(-c3cc(C(=O)NCc4ccccc4OCC(F)(F)F)c(C)nc3C)ccc2n1` [Example 68, 5-{2-acetamidoimidazo[1,2-b]pyridazin-6-yl}-2,6-dimethyl-N-{[2-(2,2,2-trifluoroethoxy)phenyl]methyl}pyridine-3-carboxamide], the half-maximal inhibitory concentration (IC50) turned out to be 5 nM in assay [1] and 45 nM in assay [2] (Homo sapiens).

Turning to `COc1nc(C)c(-c2ccc3nc(NC(C)=O)cn3n2)cc1C(=O)NCc1ccccc1OC(C)C1CCCC1` (stereo not drawn) [Example 303, N-{[2-(1-cyclopentylethoxy)phenyl]methyl}-5-{2-acetamidoimidazo[1,2-b]pyridazin-6-yl}-2-methoxy-6-methylpyridine-3-carboxamide], the half-maximal inhibitory concentration (IC50) in assay [1] was found to be 22 nM; in assay [2], 43 nM.

For the compound `CC(=O)Nc1cn2nc(-c3cnc(C)c(C(=O)N[C@H](C)c4cc(OC(F)(F)F)ccc4F)c3)ccc2n1` (single isomer, unassigned) [Example 9-2], the IC50 is 31 nM in assay [1] and 28 nM in assay [2] (Homo sapiens).

`CC(=O)Nc1cn2nc(-c3cnc(C)c(C(=O)NCc4cc(C(F)(F)F)ccc4F)c3)ccc2n1` [Example 206, 5-{2-acetamidoimidazo[1,2-b]pyridazin-6-yl}-N-{[2-fluoro-5-(trifluoromethyl)phenyl]methyl}-2-methylpyridine-3-carboxamide, TFA]: the half-inhibitory concentration (IC50) in assay [1] came out at 12 nM; in assay [2] (Homo sapiens), 37 nM.

On to `CC(=O)Nc1cn2nc(-c3ccc(Cl)c(C(=O)NCc4ccc(OC(F)(F)F)cc4)c3F)ccc2n1` [Example 391, 6-chloro-3-{2-acetamidoimidazo [1,2-b]pyridazin-6-yl}-2-fluoro-N-{[4-(trifluoromethoxy)phenyl]methyl} benzamide], for which the IC50 in assay [1] is 105 nM; in assay [2] (Homo sapiens), 274 nM.

Consider `COc1nc(C)c(-c2ccc3nc(NC(C)=O)cn3n2)cc1C(=O)NCc1cc(OCC2CC2)ccc1F` [Example 297, N-{[5-(cyclopropylmethoxy)-2-fluorophenyl]methyl}-5-{2-acetamidoimidazo[1,2-b]pyridazin-6-yl}-2-methoxy-6-methylpyridine-3-carboxamide], for which the IC50 in assay [1] stood at 11 nM; in assay [2] (Homo sapiens) it was 36 nM.

In the case of `CC(=O)Nc1cn2nc(-c3cnc(C)c(C(=O)NCc4cc(F)cc(F)c4OC4CCOC(C)C4)c3)ccc2n1` (stereo not drawn) [Example 188, N-({3,5-difluoro-2-[(2-methyloxan-4-yl)oxy]phenyl}methyl)-5-{2-acetamidoimidazo [1,2-b]pyridazin-6-yl}-2-methylpyridine-3-carboxamide], the IC50 in assay [1] was determined as 22 nM; in assay [2] (Homo sapiens), 217 nM.

On to `[2H]C([2H])([2H])[C@@H](NC(=O)c1cc(-c2ccc3nc(NC(C)=O)cn3n2)c(C)nc1C)c1cc(C(F)(F)F)ccc1F` [Example 67, 5-{2-acetamidoimidazo[1,2-b]pyridazin-6-yl}-N-[(1R)-1-[2-fluoro-5-(trifluoromethyl)phenyl](2,2,2-deutero)ethyl]-2,6-dimethylpyridine-3-carboxamide], for which the IC50 in assay [1] and in assay [2] (Homo sapiens) was 14 nM each time.

`COc1nc(C)c(-c2ccc3nc(NC(C)=O)cn3n2)cc1C(=O)NCc1cccc(OCC2CC2)c1` [Example 309, N-{[3-(cyclopropylmethoxy)phenyl]methyl}-5-{2-acetamidoimidazo[1,2-b]pyridazin-6-yl}-2-methoxy-6-methylpyridine-3-carboxamide]: the IC50 was 19 nM in assay [1] and 46 nM in assay [2] (Homo sapiens).

Turning to `CC(=O)Nc1cn2nc(-c3cnc(C)c(C(=O)Nc4cn(Cc5ccc(F)cc5)cn4)c3)ccc2n1` [Example 350, 5-{2-acetamidoimidazo[1,2-b]pyridazin-6-yl}-N-{1-[(4-fluorophenyl)methyl]-1H-imidazol-4-yl}-2-methylpyridine-3-carboxamide], the IC50 in assay [1] worked out at 27 nM; in assay [2] (Homo sapiens), 169 nM.

Consider `CC(=O)OCC(=O)Nc1cn2nc(-c3cnc(C)c(C(=O)N[C@H](C)c4cc(OC(F)(F)F)ccc4F)c3)ccc2n1` [Example 342, {[6-(5-{[(1R)-1-[2-fluoro-5-(trifluoromethoxy)-phenyl]ethyl]-carbamoyl}-6-methylpyridin-3-yl)imidazo[1,2-b]pyridazin-2-yl]carbamoyl}-methyl acetate], for which the figures for the half-maximal inhibitory concentration (IC50) in assay [1] and in assay [2] (Homo sapiens) were 13 nM and 142 nM, respectively.

Turning to `[2H]C([2H])([2H])Oc1ncc(-c2ccc3nc(NC(C)=O)cn3n2)cc1C(=O)N[C@H](C)c1cc(OC(F)(F)F)ccc1F` [Example 47, 5-{2-acetamidoimidazo[1,2-b]pyridazin-6-yl}-N-[(1R)-1-[2-fluoro-5-(trifluoromethoxy)phenyl]ethyl]-2-(D3)methoxypyridine-3-carboxamide], the figures for the IC50 in assay [1] and in assay [2] (Homo sapiens) were 161 nM and 85 nM, respectively.

Regarding `[2H]C([2H])([2H])Oc1ncc(-c2ccc3nc(NC(C)=O)cn3n2)cc1C(=O)NCc1cc(OC(F)(F)F)ccc1F` [Example 58, 5-{2-acetamidoimidazo[1,2-b]pyridazin-6-yl}-N-{[2-fluoro-5-(trifluoromethoxy)phenyl]methyl}-2-(D3)methoxypyridine-3-carboxamide], the IC50 came to 14 nM in assay [1] and 21 nM in assay [2] (Homo sapiens).

As for `CC(=O)Nc1cn2nc(-c3cc(F)c(C)c(C(=O)NCc4ccccc4Oc4ccccc4)c3)ccc2n1` [Example 364, 5-{2-acetamidoimidazo [1,2-b]pyridazin-6-yl}-3-fluoro-2-methyl-N-[(2-phenoxyphenyl)methyl] benzamide], the half-inhibitory concentration (IC50) in assay [1] and in assay [2] (Homo sapiens) was 7 nM each time.

Turning to `CC(=O)Nc1cn2nc(-c3cnc(C)c(C(=O)NCc4cc(F)ccc4OCC(F)(F)F)c3)ccc2n1` [Example 195, 5-{2-acetamidoimidazo[1,2-b]pyridazin-6-yl}-N-{[5-fluoro-2-(2,2,2-trifluoroethoxy)phenyl]methyl}-2-methylpyridine-3-carboxamide], the IC50 was 43 nM in assay [1] and 188 nM in assay [2] (Homo sapiens).

On to `CC(=O)Nc1cn2nc(-c3cc(C(=O)NCc4cc(OC(F)(F)F)ccc4F)ccc3Cl)ccc2n1` [Example 431, 4-chloro-3-{2-acetamidoimidazo [1,2-b]pyridazin-6-yl}-N-{[2-fluoro-5-(trifluoromethoxy)phenyl]methyl} benzamide], for which the IC50 in assay [1] worked out at 7 nM; in assay [2] (Homo sapiens) it was 91 nM.

Regarding `COc1ncc(-c2ccc3nc(NC(C)=O)c(C)n3n2)cc1C(=O)NCc1cccc(OC(F)(F)F)c1` [Example 257, 5-{2-acetamido-3-methylimidazo[1,2-b]pyridazin-6-yl}-2-methoxy-N-{[3-(trifluoromethoxy)phenyl]methyl}pyridine-3-carboxamide, TFA], the IC50 in assay [1] is 61 nM; in assay [2] (Homo sapiens), 69 nM.

With `CC(=O)Nc1cn2nc(-c3cnc(Cl)c(C(=O)NCc4cc(F)cc(F)c4OC(C)C4CCC4)c3)ccc2n1` (stereo not drawn) [Example 273, 2-chloro-N-{[2-(1-cyclobutylethoxy)-3,5-difluorophenyl]methyl}-5-{2-acetamidoimidazo[1,2-b]pyridazin-6-yl}pyridine-3-carboxamide, TFA], the IC50 was 4 nM in assay [1] and 43 nM in assay [2] (Homo sapiens).

As to `COc1ncc(-c2ccc3nc(NC(C)=O)cn3n2)cc1C(=O)NCc1cc(F)cc(F)c1OC(C)C1CC1` (stereo not drawn) [Example 148, N-{[2-(1-cyclopropylethoxy)-3,5-difluorophenyl]methyl}-5-(2-acetamidoimidazo[1,2-b]pyridazin-6-yl}-2-methoxypyridine-3-carboxamide], the results for the IC50 in assay [1] and in assay [2] (Homo sapiens) were 4 nM and 2 nM, respectively.

With `CC(=O)Nc1cn2nc(-c3cnc(C(F)(F)F)c(C(=O)NCc4c(F)ccc(F)c4OCC4CC4)c3)ccc2n1` [Example 31, N-{[2-(cyclopropylmethoxy)-3,6-difluorophenyl]methyl}-5-{2-acetamidoimidazo[1,2-b]pyridazin-6-yl}-2-(trifluoromethyl)pyridine-3-carboxamide], the concentration for half-maximal inhibition (IC50) amounted to 82 nM in assay [1] and 339 nM in assay [2] (Homo sapiens).

Take `CC(=O)Nc1cn2nc(-c3cnc(C)c(C(=O)NCc4ccccc4OC4CCOC4)c3)ccc2n1` (stereo not drawn) [Example 224, 5-{2-acetamidoimidazo[1,2-b]pyridazin-6-yl}-2-methyl-N-{[2-(oxolan-3-yloxy)phenyl]methyl}pyridine-3-carboxamide]: the IC50 in assay [1] came to 157 nM; in assay [2] (Homo sapiens), 334 nM.

On to `CC(=O)Nc1cn2nc(-c3cc(C(=O)NCc4cc(OC(F)(F)F)ccc4F)cnc3C)ccc2n1` [Example 234, 5-{2-acetamidoimidazo[1,2-b]pyridazin-6-yl}-N-{[2-fluoro-5-(trifluoromethoxy)phenyl]methyl}-6-methylpyridine-3-carboxamide], for which the half-maximal inhibitory concentration (IC50) was determined as 46 nM in assay [1] and 71 nM in assay [2] (Homo sapiens).
